# Experimental data as given in ChEMBL document CHEMBL1137640, “In vitro antimycobacterial spectrum of a diarylquinoline ATP synthase inhibitor” (2007).
# System: Mycobacterium tuberculosis
# Assay: Antimicrobial activity against multidrug-resistant Mycobacterium tuberculosis isolate after 2 to 4 weeks by two fold dilution method
# Type: functional
smiles,measurement,value
COc1nc2ccc(Br)cc2cc1[C@@H](c1ccccc1)[C@@](O)(CCN(C)C)c1cccc2ccccc12 [BEDAQUILINE],MIC,0.004 µg/mL
same,MIC50,0.03 µg/mL
same,MIC90,0.06 µg/mL
